The target of this assay is Poly [ADP-ribose] polymerase 1 (Homo sapiens, UniProt P09874). In words: Inhibition of human PARP1.
Sequence of Poly [ADP-ribose] polymerase 1 (P09874 whole entry): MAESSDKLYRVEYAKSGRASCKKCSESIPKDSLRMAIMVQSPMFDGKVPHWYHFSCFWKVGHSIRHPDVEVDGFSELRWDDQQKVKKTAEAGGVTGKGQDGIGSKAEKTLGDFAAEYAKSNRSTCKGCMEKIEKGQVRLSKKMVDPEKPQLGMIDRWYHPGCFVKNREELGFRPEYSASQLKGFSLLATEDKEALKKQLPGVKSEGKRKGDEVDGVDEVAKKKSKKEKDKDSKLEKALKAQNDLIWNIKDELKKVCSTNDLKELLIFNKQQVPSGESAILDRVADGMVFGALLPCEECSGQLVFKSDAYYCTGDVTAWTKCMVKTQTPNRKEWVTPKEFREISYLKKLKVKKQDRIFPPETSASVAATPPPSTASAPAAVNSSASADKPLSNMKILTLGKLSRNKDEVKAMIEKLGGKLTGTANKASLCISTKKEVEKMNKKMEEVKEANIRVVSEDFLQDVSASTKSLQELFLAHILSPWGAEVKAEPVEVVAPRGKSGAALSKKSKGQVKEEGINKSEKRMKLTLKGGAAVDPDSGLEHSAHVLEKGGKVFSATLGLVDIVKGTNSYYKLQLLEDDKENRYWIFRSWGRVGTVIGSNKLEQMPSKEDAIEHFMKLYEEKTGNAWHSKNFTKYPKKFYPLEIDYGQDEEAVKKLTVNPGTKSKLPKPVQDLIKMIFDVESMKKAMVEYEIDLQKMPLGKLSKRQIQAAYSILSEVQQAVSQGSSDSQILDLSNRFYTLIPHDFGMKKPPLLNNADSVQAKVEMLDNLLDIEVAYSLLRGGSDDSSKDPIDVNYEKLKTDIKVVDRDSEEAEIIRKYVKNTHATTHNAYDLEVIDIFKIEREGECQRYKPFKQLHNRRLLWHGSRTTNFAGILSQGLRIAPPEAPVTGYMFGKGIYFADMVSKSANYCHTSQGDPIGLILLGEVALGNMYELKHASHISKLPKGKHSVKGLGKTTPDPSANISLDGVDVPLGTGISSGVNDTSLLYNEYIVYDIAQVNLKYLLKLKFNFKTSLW
On to `O=C(c1csc(Cc2n[nH]c(=O)c3ccccc23)c1)N1CCN(C(=O)C2CC2)CC1`, for which the IC50 came out at 105 nM.
To `CC(=O)N1CCN(C(=O)c2csc(Cc3n[nH]c(=O)c4ccccc34)c2)CC1` belongs 124 nM.
To `CCC(=O)N1CCN(C(=O)c2csc(Cc3n[nH]c(=O)c4ccccc34)c2)CC1` belongs 78.6 nM; to `COc1ccc(CC(=O)N2CCN(C(=O)c3csc(Cc4n[nH]c(=O)c5ccccc45)c3)CC2)cc1`, 94.9 nM; to `N#Cc1ccc(C(=O)N2CCN(C(=O)c3csc(Cc4n[nH]c(=O)c5ccccc45)c3)CC2)cc1`, 85.5 nM.
As to `O=C(c1ccc(Br)cc1)N1CCN(C(=O)c2csc(Cc3n[nH]c(=O)c4ccccc34)c2)CC1`, inhibition was half-maximal at 72.3 nM (IC50). This IC50 and that of the compound before are within 1.5-fold of each other.
To `O=C(c1csc(Cc2n[nH]c(=O)c3ccccc23)c1)N1CCN(C(=O)c2ccc3c(c2)OCO3)CC1` belongs 39.6 nM; to `O=C(c1csc(Cc2n[nH]c(=O)c3ccccc23)c1)N1CCN(C(=O)c2cccs2)CC1`, 10.8 nM.
In the case of `O=C(c1ccncc1)N1CCN(C(=O)c2csc(Cc3n[nH]c(=O)c4ccccc34)c2)CC1`, half-maximal inhibition (IC50) required 108 nM.
Take `O=C(c1csc(Cc2n[nH]c(=O)c3ccccc23)c1)N1CCN(C(=O)c2ccccn2)CC1`: the midpoint of inhibition, the IC50, lay at 46.1 nM. This IC50 is about 2.3-fold lower than that of the compound before.
